Results taken from patent US12612380B2, “Non-lysosomal glucosylceramidase inhibitors and uses thereof” (ALECTOS THERAPEUTICS INC., priority 2019, dated 2026).
Where two headings read alike, the source gives them in different places.

What was measured:
GBA2 [1] = biological target: T1, GBA2 (Homo sapiens, UniProt Q9HCG7); assay: Binding specificity (selectivity) for GBA2 over other enzymes; format: biochemical; details: compared to a suitable reference compound, e.g. NB-DNJ (miglustat) or AMP-DNM
T1 sequence (Q9HCG7 1-927): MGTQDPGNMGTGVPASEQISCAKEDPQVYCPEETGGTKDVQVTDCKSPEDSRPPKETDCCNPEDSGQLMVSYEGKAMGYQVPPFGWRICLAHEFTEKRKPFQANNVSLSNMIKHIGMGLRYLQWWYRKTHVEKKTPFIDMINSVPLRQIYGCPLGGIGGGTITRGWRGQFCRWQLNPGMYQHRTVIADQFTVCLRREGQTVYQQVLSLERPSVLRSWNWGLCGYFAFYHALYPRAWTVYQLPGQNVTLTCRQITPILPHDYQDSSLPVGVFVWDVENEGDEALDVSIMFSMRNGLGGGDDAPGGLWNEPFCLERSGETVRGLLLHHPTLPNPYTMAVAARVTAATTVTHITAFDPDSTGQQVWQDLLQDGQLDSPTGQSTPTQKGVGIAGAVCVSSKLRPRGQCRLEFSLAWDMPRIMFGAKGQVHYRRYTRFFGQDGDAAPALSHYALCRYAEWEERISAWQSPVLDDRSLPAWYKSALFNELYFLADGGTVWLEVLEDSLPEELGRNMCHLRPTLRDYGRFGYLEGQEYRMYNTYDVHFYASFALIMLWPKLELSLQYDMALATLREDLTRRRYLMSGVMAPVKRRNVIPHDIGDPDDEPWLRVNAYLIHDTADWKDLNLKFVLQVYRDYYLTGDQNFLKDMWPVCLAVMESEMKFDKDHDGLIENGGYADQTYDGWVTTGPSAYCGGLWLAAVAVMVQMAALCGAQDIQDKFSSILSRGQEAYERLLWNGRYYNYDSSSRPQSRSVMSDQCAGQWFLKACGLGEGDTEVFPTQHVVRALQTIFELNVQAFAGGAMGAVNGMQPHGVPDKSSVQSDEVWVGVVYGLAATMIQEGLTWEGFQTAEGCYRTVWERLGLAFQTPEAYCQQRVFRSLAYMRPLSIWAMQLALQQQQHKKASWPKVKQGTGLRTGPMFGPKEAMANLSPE
Text: In some embodiments, one or more of the compounds according to the invention may specifically bind a GBA2. In alternative embodiments, one or more of the compounds according to the invention may specifically bind the active site of a GBA2. […] In alternative embodiments, one or more of the compounds according to the invention may specifically bind the human non-lysosomal glucosylceramidase (GBA2) over the human lysosomal glucosylceramidase (GCase) and/or the human cytosolic glucosylceramidase (GBA3). In alternative embodiments, one or more of the compounds according to the invention may specifically bind the human non-lysosomal glucosylceramidase (GBA2) over the human glucosylceramide synthase (GCS). In alternative embodiments, one or more of the compounds according to the invention may specifically bind the human non-lysosomal glucosylceramidase (GBA2) over an intestinal alpha-glucosidase, where the intestinal alpha-glucosidase may be a sucrase-isomaltase or a maltase-glucoamylase.

[2] = Brain concentration when administered in vivo; details: compared to a suitable reference compound, e.g. NB-DNJ (miglustat) or AMP-DNM
Text: Permeability can be assessed using a variety of standard experimental techniques, including without limitation in situ perfusion, ex vivo tissue diffusion, in vitro cell monolayers (e.g. Caco-2 cells, MDCK cells, LLC-PK1 cells), and artificial cell membranes (e.g. PAMPA assay); suitable techniques for measuring effective permeability (Peff) or apparent permeability (Papp) are reviewed for example by Volpe in The AAPS Journal, 2010, 12(4), 670-678. In some embodiments, one or more of the compounds according to the invention may show enhanced permeability when tested in one or more of these assays for determining Peff or Papp. […] In some embodiments, “enhanced permeability” means an increase in measured Peff or Papp by any value between about 10% and about 100%, or of any integer value between about 10% and about 100%, for example, about 10%, 20%, 30%, 40%, 50%, 60%, 70%, 80%, 90%, 100%, or over 100%, or an increase by about 1-fold, 2-fold, or 3-fold, or more, as compared to a suitable reference compound such as, for example, N-butyldeoxynojirimycin (NB-DNJ, miglustat) or N-(5-adamantane-1-yl-methoxy)pentyl)-deoxynojirimycin (AMP-DNM, Genz-529648). In some embodiments, “enhanced permeability” means a measurable Papp value (i.e. a value greater than zero) in a suitable assay to measure Papp using in vitro cell monolayers. In some embodiments, “enhanced permeability” means a Papp value greater than 2×10^−6 cm/s in a suitable assay to measure Papp using in vitro cell monolayers. In alternative embodiments, “enhanced permeability” means a Papp value in the range 2×10^−6 cm/s to 40×10^−6 cm/s in a suitable assay to measure Papp using in vitro cell monolayers. In some embodiments, “higher brain concentration” means an increase in measured brain concentration when the compound is administered in vivo by any value between about 10% and about 100%, or of any integer value between about 10% and about 100%, for example, about 10%, 20%, 30%, 40%, 50%, 60%, 70%, 80%, 90%, 100%, or over 100%, or an increase by about 1-fold, 2-fold, 3-fold, 4-fold, 5-fold, 10-fold, 20-fold, 30-fold, 40-fold, or 50-fold, or more, as compared to a suitable reference compound such as, for example, N-butyldeoxynojirimycin (NB-DNJ, miglustat) or N-(5-adamantane-1-yl-methoxy)pentyl)-deoxynojirimycin (AMP-DNM, Genz-529648).

GBA2 [3] = biological target: T1, GBA2; assay: Determination of IC50 values for inhibition of GBA2 in cell lysate; format: biochemical; parameters: host or cells: HEK293T (lentiviral transduction, puromycin selection); used as cellular homogenate
In short: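 Fluorogenic 4-MU-β-glucoside (250 μM) turnover over 20 min at 37 °C, pH 5.5, measured after NaOH/glycine stop (ex 365, em 450 nm). Enzyme source: lysate (0.083 mg/mL) of lentivirally transduced GBA2-HEK293T, GCase blocked by 20 μM azaspiro-octanediol; compound preincubated 5 min; IC50 = 50% inhibition concentration.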

[4] = cellular homogenate of HEK293T cells overexpressing human GBA2, 250 μM 4-methylumbelliferone-β-D glucopyranoside, pH 5.5, 37° C., GCase inhibitor present, read-out: GBA2 IC50

| SMILES | binding specificity (IC50 or Ki of other molecule / GBA2) (GBA2 [1]) | IC50 (GBA2 [3]; [4]) | brain concentration when administered in vivo [2] | IC50 (GBA2 [3]) |
| --- | --- | --- | --- | --- |
| CC(C)[C@H]1CC[C@@H](CN2C[C@H](O)[C@@H](O)[C@H](O)[C@H]2C)CC1 [Example 7, (2R,3R,4R,5S)-1-(((1s,4S)-4-isopropylcyclohexyl)methyl)-2-methylpiperidine-3,4,5-triol] | enhanced binding specificity | < 100 nM | higher brain concentrations | – |
| C[C@@H]1[C@@H](O)[C@H](O)[C@@H](O)CN1C[C@H]1CC[C@H](C(F)(F)F)CC1 [Example 12, (2R,3R,4R,5S)-2-methyl-1-(((1r,4R)-4-(trifluoromethyl)cyclohexyl)methyl)piperidine-3,4,5-triol] | enhanced binding specificity | < 100 nM | higher brain concentrations | – |
| C[C@@H]1[C@@H](O)[C@H](O)[C@@H](O)CN1CCc1cccc(Cl)c1F [Example 45, (2R,3R,4R,5S)-1-(3-chloro-2-fluorophenethyl)-2-methylpiperidine-3,4,5-triol] | enhanced binding specificity | – | higher brain concentrations | < 100 nM |
| C[C@@H]1[C@@H](O)[C@H](O)[C@@H](O)CN1CCc1c(F)ccc(Cl)c1F [Example 49, (2R,3R,4R,5S)-1-(3-chloro-2,6-difluorophenethyl)-2-methylpiperidine-3,4,5-triol] | enhanced binding specificity | – | higher brain concentrations | < 100 nM |
| C[C@@H]1[C@@H](O)[C@H](O)[C@@H](O)CN1CCc1ccc2c(c1)OCO2 [Example 70, (2R,3R,4R,5S)-1-(2-(benzo[d][1,3]dioxol-5-yl)ethyl)-2-methylpiperidine-3,4,5-triol] | enhanced binding specificity | – | higher brain concentrations | < 100 nM |
| C[C@@H]1[C@@H](O)[C@H](O)[C@@H](O)CN1CC1CCN(c2ccc(F)cc2)CC1 [Example 85, (2R,3R,4R,5S)-1-((1-(4-fluorophenyl)piperidin-4-yl)methyl)-2-methylpiperidine-3,4,5-triol] | – | < 100 nM | higher brain concentrations | – |
| Cc1ccccc1N1CCC[C@H](CN2C[C@H](O)[C@@H](O)[C@H](O)[C@H]2C)C1 [Example 136, (2R,3R,4R,5S)-2-methyl-1-(((R)-1-(o-tolyl)piperidin-3-yl)methyl)piperidine-3,4,5-triol] | enhanced binding specificity | < 100 nM | – | – |
| C[C@@H]1[C@@H](O)[C@H](O)[C@@H](O)CN1C[C@H]1CCCN(c2ccccc2F)C1 [Example 137, (2R,3R,4R,5S)-1-(((R)-1-(2-fluorophenyl)piperidin-3-yl)methyl)-2-methylpiperidine-3,4,5-triol] | enhanced binding specificity | < 100 nM | – | – |
| O[C@H]1[C@H](O)[C@@H](O)CN(CCc2cc3c(cc2F)OCO3)[C@@H]1CF [Example 152, (2S,3R,4R,5S)-1-(2-(6-fluorobenzo[d][1,3]dioxol-5-yl)ethyl)-2-(fluoromethyl)piperidine-3,4,5-triol] | enhanced binding specificity | – | – | < 100 nM |

Further lines, with some results ahead:

| binding specificity (IC50 or Ki of other molecule / GBA2) (GBA2 [1]) | IC50 (GBA2 [3]; [4]) | SMILES | brain concentration when administered in vivo [2] | IC50 (GBA2 [3]) |
| --- | --- | --- | --- | --- |
| enhanced binding specificity | < 100 nM | C[C@@H]1[C@@H](O)[C@H](O)[C@@H](O)CN1C[C@H]1CCCN(c2ncccc2C(F)(F)F)C1 [Example 138, (2R,3R,4R,5S)-2-methyl-1-(((R)-1-(3-(trifluoromethyl)pyridin-2-yl)piperidin-3-yl)methyl)piperidine-3,4,5-triol] | – | – |
| enhanced binding specificity | < 100 nM | C[C@@H]1[C@@H](O)[C@H](O)[C@@H](O)CN1C[C@H]1CCCN(c2cccc(C(F)(F)F)n2)C1 [Example 139, (2R,3R,4R,5S)-2-methyl-1-(((R)-1-(6-(trifluoromethyl)pyridin-2-yl)piperidin-3-yl)methyl)piperidine-3,4,5-triol] | – | – |
| enhanced binding specificity | < 100 nM | C[C@@H]1[C@@H](O)[C@H](O)[C@@H](O)CN1C[C@H]1CCCN(c2cnccc2C(F)(F)F)C1 [Example 140, (2R,3R,4R,5S)-2-methyl-1-(((R)-1-(4-(trifluoromethyl)pyridin-3-yl)piperidin-3-yl)methyl)piperidine-3,4,5-triol] | – | – |
| enhanced binding specificity | < 100 nM | C[C@@H]1[C@@H](O)[C@H](O)[C@@H](O)CN1C[C@@H]1CCCN(c2ncccc2C(F)(F)F)C1 [Example 141, (2R,3R,4R,5S)-2-methyl-1-(((S)-1-(3-(trifluoromethyl)pyridin-2-yl)piperidin-3-yl)methyl)piperidine-3,4,5-triol] | – | – |
| enhanced binding specificity | < 100 nM | C[C@@H]1[C@@H](O)[C@H](O)[C@@H](O)CN1C[C@@H]1CCCN(c2cnccc2C(F)(F)F)C1 [Example 142, (2R,3R,4R,5S)-2-methyl-1-(((S)-1-(4-(trifluoromethyl)pyridin-3-yl)piperidin-3-yl)methyl)piperidine-3,4,5-triol] | – | – |
| enhanced binding specificity | < 100 nM | O[C@H]1[C@H](O)[C@@H](O)CN(C[C@H]2CC[C@H](C(F)(F)F)CC2)[C@@H]1CF [Example 147, (2S,3R,4R,5S)-2-(fluoromethyl)-1-(((1r,4S)-4-(trifluoromethyl)cyclohexyl)methyl)piperidine-3,4,5-triol] | – | – |
| enhanced binding specificity | < 100 nM | O[C@H]1[C@H](O)[C@@H](O)CN(CCc2c(F)cc(-c3ccccc3)cc2F)[C@@H]1CF [Example 151, (2S,3R,4R,5S)-1-(2-(3,5-difluoro-[1,1′-biphenyl]-4-yl)ethyl)-2-(fluoromethyl)piperidine-3,4,5-triol] | – | – |
